Measurements taken from article PMC12508576, “Implementing a trilineage differentiation in the ReproTracker assay for improved teratogenicity assessment” (Frontiers in Toxicology, 2025).
Like-named read-outs stand apart in the source and are kept apart here.

Tests used:
[1] = tested on: hiPSCs differentiating into hepatocyte-like cells; assay: ReproTracker hepatocyte differentiation assay
Protocol: (§1) Prior to differentiation, the cells were harvested and dissociated into single cells using Gibco™ TrypLE™ Select (ThermoFisher Scientific; Bleiswijk, Netherlands) for 5 min at 37 °C. Cells were seeded in Matrigel™-coated 24-well plates (ThermoFisher Scientific) in mTeSR™1 containing RevitaCell™ Supplement (ThermoFisher Scientific). […] The cells were cultured in this medium until D3. From D3 until the end of the differentiation protocol (D13) (one-step protocol), cells were cultured in N2B27 medium without ROCK inhibitor or LDN193189. In the case of the replating protocol, cells were replated at D7 and grown in the same medium until day 13. At the end of the differentiation, morphology of the cells was assessed using an Operetta CLS (Revvity) instrument. The expected morphology for each of the lineages, to ensure data acceptance and correct differentiations, is further described in Section 2.9 of the methods section. The trilineage differentiation was replicated in 96-well plates (ThermoFisher Scientific and Revvity Phenoplate) using the same differentiation protocols with an adapted number of cells for the seeding. And termination at D14.
(§2) Cells were harvested, and total RNA was isolated using the Maxwell® RSC simply RNA Cells Kit (cat. no.: #AS1390; Promega) on a Maxwell automated purification instrument (Maxwell RSC 48; Promega). […] Each individual primer was paired with its corresponding fluorophore and quencher and adjusted accordingly depending on gene abundance. Primer and probe sequences are described in Supplementary Table S1.
(§3) Data acceptance was based on the appropriate expression of the assessed biomarker genes in the differentiated populations, at appropriate times during differentiation. Failure to observe the expected temporal expression of key, lineage-specific biomarkers, during the cell fate choices associated with each differentiation protocol, would result in the experiment being invalidated.
(§4) To follow morphological changes throughout the hepatocyte and neural differentiation protocol, brightfield images of the cells were acquired after each medium refresh using an iRiS digital cell imaging microscope (Logos Biosystems) or an Operetta CLS (Revvity) instrument. Images were scored based on visual assessment. Cardiac contractability of cardiomyocytes was evaluated visually using an iRiS digital cell imaging microscope (Logos Biosystems).
(§5) Morphologically, cardiomyocytes are expected to group in fiber-like 3D structures that distribute throughout the entire plate. Aside from morphology, an additional criterion for cardiomyocyte differentiation in each experimental setup is for the contracting mature cardiomyocyte cultures exposed to solvent controls, to reach 75%. […] Neural rosettes are recognized by well-defined cell boundaries and multi-layered cultures. Functional/morphological assessment was completed independently from biomarker data analyses. Morphology scores were confirmed by a second person. Failure to observe the anticipated cell morphology/functionality throughout differentiation would result in invalidation of the experiment. Disruption in the morphology of cardiomyocytes is described as a lack of 3D-fibre-like structures in the cultures as well as a clear lack of contractions. Morphologically aberrant hepatocytes are characterized by a lack of polygonal structures with smaller cytoplasm that in the control cultures and the formation of dark cell-dense structures, commonly indicative of clumps of dead cells with big empty spaces between cell colonies.

[2] = tested on: hiPSCs differentiating into neural rosette-like cells
Protocol: as §1, §2, §3, §4, §5

[3] = cited from earlier work
[4] = tested on: hiPSCs trilineage differentiation (cardiomyocytes, hepatocytes, neural rosette-like cells)
Description: (§6) In ReproTracker, teratogenicity prediction of test compounds is based on a Weight of Evidence (WoE) approach, which considers both the significant decrease in biomarker expression and the morphological/functional changes following exposure to test compounds throughout differentiation assays.
(§7) This threshold, for any given biomarker, is defined as the average minus one time the standard deviation (SD) of the biomarker expression levels in solvent-exposed control cultures throughout the experiment. Reduced expression of the selected biomarkers below the set threshold in a concentration-dependent manner, upon exposure to a minimum of 2 consecutive non-cytotoxic concentrations would be considered significant (noted as +). A decrease in expression below the threshold without a clear dose-response would lead to an equivocal classification (noted as (+)). An increase in expression or a lack of response would be considered negative (noted as -). Disruption of morphology/functionality of the cultures upon compound exposure at the two highest tested concentrations in all biological replicates is considered as a morphological disruption (noted as +). Absence of significant effects results in a negative score (noted as -).
(§8) For each differentiation assay, the expression of two biomarkers and a morphological/functional read-out are considered. In the hepatocyte and cardiomyocyte differentiation, FOXA2 and BMP4 are considered germ-layer-specific biomarkers, while AFP and MYH6 are considered cell-specific biomarkers, respectively. When applying the WoE approach, the cell-specific biomarkers in hepatocyte and cardiomyocyte differentiation are given higher weight compared to the germ-layer specific biomarkers and morphology/functionality. For the neural differentiation, both PAX6 and NESTIN are given equal weight as they are considered cell-specific markers. In this case, both biomarkers are given higher weight than the morphological read-out.
(§9) Every measurement/observation is assigned a score (positive, negative, or equivocal). […] In the ReproTracker assay, a compound is identified as a teratogen if it receives a positive score in at least one of the trilineage differentiation assays (cardiomyocyte, hepatocyte, or neural differentiation). […] If neither biomarker expression levels nor morphology/functionality are affected in any of the differentiation assays, the response is considered negative.

[5] = tested on: hiPSCs differentiating into cardiomyocyte-like cells; assay: ReproTracker cardiomyocyte differentiation assay
Protocol: as §1, §2, §3, §4, §5

[6] = tested on: hiPSCs trilineage differentiation (cardiomyocytes, hepatocytes, neural rosette-like cells); assay: ReproTracker trilineage differentiation, overall teratogenicity prediction; conditions: lowest tested concentration with significant decrease of at least one biomarker, trilineage assay; 'N.d. up to x' given as > x
Description: as §6, §7, §8, §9

[7] = tested on: hiPSCs differentiating into hepatocyte-like cells; conditions: cited from earlier work
[8] = tested on: hiPSCs differentiating into cardiomyocyte-like cells; conditions: lineage call; footnote b: previously published data; ref Jamalpoor et al., 2022; cited from earlier work
[9] = read-out: Human therapeutic cmax, Table 1 (R3 I (2021), Schulz et al. (2020) and others)
[10] = lineage call (positive/equivocal/negative)
[11] = lineage call, footnote b: previously published data, ref Jamalpoor et al., 2022

SMILES	ReproTracker results Hepatocyte-like cells [1]	ReproTracker results Neural rosette-like cells [2]	ReproTracker results Cardiomyocyte-like cells [5]	Cmax [3, 9] [µM]	LOAEL compared with respective human therapeutic Cmax ([4]; human)	ReproTracker results LOAEL ([4]; human) [µM]	further results
CC(=O)CC(c1ccccc1)c1c(O)c2ccccc2oc1=O (stereo not drawn) [Warfarin]							ReproTracker results LOAEL [6]: 62.5 to 250 µM; ReproTracker results Neural rosette-like cells [2, 10]: Negative; Cmax ([3]; human, in vivo): 3.2 to 9.7 µM; ReproTracker results Hepatocyte-like cells [7]: Positive
NS(=O)(=O)c1cc2c(cc1Cl)NCNS2(=O)=O [Hydrochlorothiazide]		Negative		0.1 to 0.2			ReproTracker results Cardiomyocyte-like cells [8]: Positive; ReproTracker results Hepatocyte-like cells [7, 11]: Positive
CC(=O)Oc1ccccc1C(=O)O [Aspirin]	Positive	Negative	Negative	111 to 1110	equal to or below	500	
NC(=O)NO [Hydroxyurea]	Positive	Positive	Negative	263	equal to or below		ReproTracker results LOAEL [6]: ≤2.0 µM
CC1(C)S[C@@H]2[C@H](NC(=O)[C@H](N)c3ccc(O)cc3)C(=O)N2[C@H]1C(=O)O [Amoxicillin]		Negative		1.4 to 41			ReproTracker results Cardiomyocyte-like cells [8]: Negative
COc1cc(C)c(/C=C/C(C)=C/C=C/C(C)=C/C(=O)O)c(C)c1C [Acitretin]				0.03 to 0.9	equal to or below		ReproTracker results LOAEL [6]: ≤0.2 µM; ReproTracker results Hepatocyte-like cells [1, 10]: Positive; ReproTracker results Neural rosette-like cells [2, 10]: Positive; ReproTracker results Cardiomyocyte-like cells [5, 10]: Positive
Nc1ccn([C@@H]2O[C@H](CO)[C@@H](O)[C@@H]2O)c(=O)n1 [Cytarabine]	Negative	Positive	Positive	0.2 to 2.1	equal to or below		ReproTracker results LOAEL [4]: Positive
Cc1ccc(NC(=O)c2ccc(CN3CCN(C)CC3)cc2)cc1Nc1nccc(-c2cccnc2)n1 [Imatinib]		Positive	Negative	1.5	equal to or below	0.1	ReproTracker results Hepatocyte-like cells [1, 10]: Positive
N#C[C@@H]1CCCN1C(=O)CNC12CC3CC(CC(O)(C3)C1)C2 [Vildagliptin]		Positive	Negative	0.6 to 1		125	ReproTracker results Hepatocyte-like cells [1, 10]: Negative

Now from value to compound, other results behind:

ReproTracker results Hepatocyte-like cells [1]	ReproTracker results Neural rosette-like cells [2]	ReproTracker results Cardiomyocyte-like cells [5]	SMILES	Cmax [3, 9] [µM]	LOAEL compared with respective human therapeutic Cmax ([4]; human)	ReproTracker results LOAEL ([4]; human) [µM]	further results
Positive	Positive	Positive	CC1=C(/C=C/C(C)=C/C=C/C(C)=C\C(=O)O)C(C)(C)CCC1 [Isotretinoin]	0.004 to 0.008	equal to or below	≤0.0041	
	Negative		Nc1nc2ncc(CNc3ccc(C(=O)N[C@@H](CCC(=O)O)C(=O)O)cc3)nc2c(=O)[nH]1 [Folic acid]	0.002 to 0.01			ReproTracker results LOAEL [6]: N.d. up to 1.95 µM; ReproTracker results Hepatocyte-like cells [7, 11]: Negative
Positive	Positive	Negative	O=C1NC(=O)C(c2ccccc2)(c2ccccc2)N1 [Phenytoin]	39.6 to 79.3	equal to or below	31.3	NESTIN gene expression at D13 [2]: without affecting; PAX6 gene expression at D7 [2]: downregulated; morphology of neural rosette-like cells [2]: disrupted
Negative	Positive	Negative	NC(=O)c1ncn([C@@H]2O[C@H](CO)[C@@H](O)[C@H]2O)n1 [Ribavirin]	3.2	equal to or below	≤1	
	Negative		CCN(CC)CCNC(=O)c1cc(Cl)c(N)cc1OC [Metoclopramide]	0.03 to 0.5			ReproTracker results LOAEL [6]: N.d. up to 62.5 µM; ReproTracker results Cardiomyocyte-like cells [8]: Negative; ReproTracker results Hepatocyte-like cells [7, 11]: Negative
Negative	Positive	Negative	OC(Cn1cncn1)(Cn1cncn1)c1ccc(F)cc1F [Fluconazole]	6.5 to 19.6		125	NESTIN gene expression at D13 [2]: decreased; PAX6 gene expression at D7 [2]: decreased
Negative	Positive	Positive	Cc1nc(Nc2ncc(C(=O)Nc3c(C)cccc3Cl)s2)cc(N2CCN(CCO)CC2)n1 [Dasatinib]	0.07	equal to or below	0.00003 to 0.00013	
	Positive		Cn1cc[nH]c1=S [Methimazole]	4.4 to 20.2			ReproTracker results Cardiomyocyte-like cells [8]: Positive
Equivocal	Negative	Positive	COc1ccccc1Oc1c(NS(=O)(=O)c2ccc(C(C)(C)C)cc2)nc(-c2ncccn2)nc1OCCO [Bosentan]	1.3 to 2.9		15.6	
Negative	Positive	Negative	C[C@@H]1C[C@H]2[C@@H]3CCC4=CC(=O)C=C[C@]4(C)[C@@]3(F)[C@@H](O)C[C@]2(C)[C@@]1(O)C(=O)CO [Dexamethasone]	0.1 to 0.7		1.95	
